Our source for the MIC, IC50 and selectivity ratio values is ChEMBL document CHEMBL4270614, “Tuning the biological activity of cationic anthraquinone analogues specifically toward Staphylococcus aureus” (Eur J Med Chem, 2018).

Values after ≈ are worked out from the molar mass of the structure shown.

In general, MIC refers to the lowest concentration found to suppress growth. For orientation: IC50 means the concentration needed to halve the response being measured. A high value points to lower potency.

In data set [1] the test system is Staphylococcus aureus. Description: Antibacterial activity against methicillin-resistant Staphylococcus aureus ATCC 43300 measured after 12 to 18 hrs. It counts as functional.
Data set [2] relates to Escherichia coli. The data set can be described thus: Antibacterial activity against Escherichia coli ATCC 25922 measured after 12 to 18 hrs. It counts as functional.
The subject of data set [3] is Staphylococcus aureus. The data set can be described thus: Antibacterial activity against Staphylococcus aureus ATCC 25923 measured after 12 to 18 hrs. In kind it is functional.
The subject of data set [4] is Staphylococcus aureus. Description: Antibacterial activity against methicillin-resistant Staphylococcus aureus ATCC 33591 measured after 12 to 18 hrs. In kind it is functional.
Another data set concerns BEAS-2B. The data set can be described thus: Cytotoxicity against human BEAS2B cells after 48 hrs by MTT assay. It counts as cell-based. (Formazan colour is commonly taken as a measure of viable cells.)
The next data set relates to A549. The data set can be described thus: Cytotoxicity against human A549 cells after 48 hrs by MTT assay. It counts as cell-based. As to conditions: A549, 48 h.
Data set [5] is described as follows: Selectivity index, ratio of IC50 for human BEAS2B cells to IC50 for human A549 cells. The settings on record: BEAS2B cells versus A549 cells, read-out: Ratio IC50.
Data set [6] concerns Staphylococcus aureus. The data set can be described thus: Antibacterial activity against Staphylococcus aureus ATCC 25923. In kind it is functional.
For data set [7], the system named is Escherichia coli. Description: Antibacterial activity against Escherichia coli ATCC 25922. In kind it is functional.
The next data set relates to CCD-841CoN. The data set can be described thus: Cytotoxicity against human CCD-841-CoN cells after 48 hrs by MTT assay. In kind it is cell-based.
For a further data set, the system named is COLO 205. The data set can be described thus: Cytotoxicity against human COLO205 cells after 48 hrs by MTT assay. The settings on record: COLO 205, 48 h. In kind it is cell-based.
A short description of data set [8]: Selectivity index, ratio of IC50 for human CCD-841-CoN cells to IC50 for human COLO205 cells. As to conditions: CCD-841-CoN cells versus COLO205 cells, read-out: Ratio IC50.

With `COc1ccc(-n2n[n+](-c3ccc(OC)c(OC)c3)c3c2C(=O)c2ccccc2C3=O)cc1OC.O=S(=O)([O-])C(F)(F)F`, the MIC was 4 µg/mL with Staphylococcus aureus [1], > 128 µg/mL with Escherichia coli [2], 4 µg/mL in the data set on Staphylococcus aureus [3] and 2 µg/mL against Staphylococcus aureus [4]. Besides, the IC50 in the data set with BEAS-2B came out at 3.76 µg/mL; with A549, 1.6 µg/mL. The selectivity ratio in data set [5] turned out to be 2.35.
As to `CCCCCCCCn1n[n+](CC)c2c1C(=O)c1ccccc1C2=O.O=S(=O)([O-])C(F)(F)F`, the figures for the minimum inhibitory concentration (MIC) in the data set on Staphylococcus aureus [6] and against Escherichia coli [7] were 0.25 to 0.5 µg/mL and > 128 µg/mL, respectively.
For the compound `CN[C@H](CC(C)C)C(=O)N[C@H]1C(=O)N[C@@H](CC(N)=O)C(=O)N[C@H]2C(=O)N[C@H]3C(=O)N[C@H](C(=O)N[C@H](C(=O)O)c4cc(O)cc(O)c4-c4cc3ccc4O)[C@H](O)c3ccc(c(Cl)c3)Oc3cc2cc(c3O[C@@H]2O[C@H](CO)[C@@H](O)[C@H](O)[C@H]2O[C@H]2C[C@](C)(N)[C@H](O)[C@H](C)O2)Oc2ccc(cc2Cl)[C@H]1O` [VANCOMYCIN], the MIC is 32 µg/mL (≈ 22.1 µM) against Staphylococcus aureus [1] and > 256 µg/mL in the data set on Escherichia coli [2].
On to `COc1ccc(-n2n[n+](C)c3c2C(=O)c2ccccc2C3=O)cc1.O=S(=O)([O-])C(F)(F)F`, for which the MIC with Staphylococcus aureus [1] is 2 µg/mL; in the data set on Escherichia coli [2] it was > 128 µg/mL; in the data set on Staphylococcus aureus [3] it was 1 to 2 µg/mL; in the data set on Staphylococcus aureus [4] it was 0.5 µg/mL. In addition, the IC50 in the data set with CCD-841CoN turned out to be 5.89 µg/mL; with BEAS-2B it was 5.8 µg/mL; in the data set with COLO 205, 0.7 µg/mL; with A549, 0.78 µg/mL. Moreover, the values for the selectivity ratio in [5] and in [8] were 7.44 and 8.41, respectively.
For `CCCC[n+]1nn(-c2ccc([N+](=O)[O-])cc2)c2c1C(=O)c1ccccc1C2=O.O=S(=O)([O-])C(F)(F)F`, the MIC is 8 to 16 µg/mL in the data set on Staphylococcus aureus [1], 4 µg/mL against Staphylococcus aureus [3] and 2 µg/mL in the data set with Staphylococcus aureus [4]. For the same compound, the IC50 with CCD-841CoN is 42.8 µg/mL; with BEAS-2B, 49.8 µg/mL; with COLO 205, 43.2 µg/mL; in the data set on A549, 44.9 µg/mL. Besides, the selectivity ratio in [5] was 1.11; in data set [8], 0.99.
Turning to `CC[n+]1nn(-c2ccc(Cl)cc2)c2c1C(=O)c1ccccc1C2=O.O=S(=O)([O-])C(F)(F)F`, the MIC in the data set with Staphylococcus aureus [1] is 2 µg/mL; in the data set on Escherichia coli [2], > 128 µg/mL; in the data set on Staphylococcus aureus [3] it was 2 to 4 µg/mL; in the data set with Staphylococcus aureus [4] it was 1 µg/mL. Also, the IC50 in the data set on CCD-841CoN turned out to be 6.65 µg/mL; with BEAS-2B, 4.22 µg/mL; with COLO 205, 0.78 µg/mL; in the data set with A549, 0.85 µg/mL. Also, the selectivity ratio in data set [5] was found to be 4.96; in data set [8], 8.53.
Turning to `CC[n+]1nn(-c2ccc([N+](=O)[O-])cc2)c2c1C(=O)c1ccccc1C2=O.O=S(=O)([O-])C(F)(F)F`, the MIC lay within 4 to 8 µg/mL against Staphylococcus aureus [1], 8 to 16 µg/mL with Staphylococcus aureus [3] and 1 to 2 µg/mL with Staphylococcus aureus [4]. Besides, the IC50 was 51.3 µg/mL in the data set on CCD-841CoN, 43.6 µg/mL in the data set on BEAS-2B, 7.72 µg/mL with COLO 205 and 7.4 µg/mL in the data set with A549. Further, the selectivity ratio was determined as 5.89 in data set [5] and 6.64 in [8].
As to `CCCCCCCC[n+]1nn(-c2ccc([N+](=O)[O-])cc2)c2c1C(=O)c1ccccc1C2=O.O=S(=O)([O-])C(F)(F)F`, the minimum inhibitory concentration (MIC) was 32 µg/mL with Staphylococcus aureus [1], 8 µg/mL against Staphylococcus aureus [3] and 16 µg/mL in the data set with Staphylococcus aureus [4]. Further, the IC50 worked out at 31 µg/mL in the data set with CCD-841CoN, 21 µg/mL in the data set with BEAS-2B, 8.53 µg/mL with COLO 205 and 15.6 µg/mL with A549. Also, the selectivity ratio came to 4.76 in data set [5] and 3.63 in data set [8].
For `CCCCCCCCCC[n+]1nn(-c2ccc([N+](=O)[O-])cc2)c2c1C(=O)c1ccccc1C2=O.O=S(=O)([O-])C(F)(F)F`, the MIC was 8 to 16 µg/mL against Staphylococcus aureus [1], 2 to 4 µg/mL against Staphylococcus aureus [3] and 8 µg/mL with Staphylococcus aureus [4]. The IC50 in the data set on CCD-841CoN worked out at 30.6 µg/mL; in the data set on BEAS-2B, 7.39 µg/mL; in the data set with COLO 205, 7.29 µg/mL; in the data set on A549 it was 7.02 µg/mL. The figures for the selectivity ratio in data set [5] and in [8] were 1.05 and 4.2, respectively.
For `C[n+]1nn(-c2ccc(F)cc2)c2c1C(=O)c1ccccc1C2=O.O=S(=O)([O-])C(F)(F)F`, the MIC in the data set on Staphylococcus aureus [1] is 1 µg/mL; in the data set on Escherichia coli [2], > 128 µg/mL; in the data set on Staphylococcus aureus [3], 1 µg/mL; in the data set on Staphylococcus aureus [4] it was 0.5 µg/mL. Further, the 50% inhibitory concentration (IC50) in the data set with CCD-841CoN amounted to 8.16 µg/mL; in the data set with BEAS-2B it was 14.2 µg/mL; in the data set on COLO 205, 2.86 µg/mL; in the data set with A549 it was 2.22 µg/mL. Also, the selectivity ratio in data set [5] worked out at 6.44; in data set [8], 2.85.
Take `C[n+]1nn(-c2ccc([N+](=O)[O-])cc2)c2c1C(=O)c1ccccc1C2=O.O=S(=O)([O-])C(F)(F)F`: the minimal inhibitory concentration (MIC) was 2 µg/mL in the data set on Staphylococcus aureus [1], > 128 µg/mL in the data set on Escherichia coli [2], 2 µg/mL with Staphylococcus aureus [3] and 1 µg/mL with Staphylococcus aureus [4]. Besides, the IC50 came out at 55.8 µg/mL in the data set on CCD-841CoN, 52.9 µg/mL in the data set with BEAS-2B, 4.64 µg/mL in the data set on COLO 205 and 3.5 µg/mL with A549. For the same compound, the selectivity ratio in data set [5] amounted to 15.1; in data set [8], 12.
On to `C[n+]1nn(-c2ccc(C#N)cc2)c2c1C(=O)c1ccccc1C2=O.O=S(=O)([O-])C(F)(F)F`, for which the MIC against Staphylococcus aureus [1] is 2 µg/mL; in the data set on Escherichia coli [2], > 128 µg/mL; against Staphylococcus aureus [3], 2 µg/mL; with Staphylococcus aureus [4], 1 µg/mL. Besides, the IC50 in the data set with CCD-841CoN came out at 32.6 µg/mL; in the data set on BEAS-2B it was 30.1 µg/mL; in the data set with COLO 205, 5.91 µg/mL; with A549, 5.2 µg/mL. The selectivity ratio in data set [8] is 5.52.
As to `NC[C@@H]1O[C@H](O[C@H]2[C@@H](O)[C@H](O[C@@H]3[C@@H](O)[C@H](N)C[C@H](N)[C@H]3O[C@H]3O[C@H](CN)[C@@H](O)[C@H](O)[C@H]3N)O[C@@H]2CO)[C@H](N)[C@@H](O)[C@@H]1O` [FRAMYCETIN], the MIC in the data set on Staphylococcus aureus [1] is > 256 µg/mL; in the data set on Escherichia coli [2] it was 2 µg/mL (≈ 3.25 µM); in the data set with Staphylococcus aureus [3], 2 to 4 µg/mL (≈ 3.25 to 6.51 µM); against Staphylococcus aureus [4], 256 µg/mL (≈ 416 µM).
Regarding `CC[n+]1nn(-c2ccc(OC)cc2)c2c1C(=O)c1ccccc1C2=O.O=S(=O)([O-])C(F)(F)F`, the MIC is 2 µg/mL against Staphylococcus aureus [1], 128 µg/mL against Escherichia coli [2], 4 to 8 µg/mL against Staphylococcus aureus [3] and 2 µg/mL with Staphylococcus aureus [4]. For the same compound, the IC50 with CCD-841CoN was 7.85 µg/mL; with BEAS-2B it was 5 µg/mL; in the data set on COLO 205, 0.82 µg/mL; with A549, 0.73 µg/mL. The values for the selectivity ratio in [5] and in data set [8] were 6.85 and 9.57, respectively.
For `CCCCCC[n+]1nn(-c2ccc([N+](=O)[O-])cc2)c2c1C(=O)c1ccccc1C2=O.O=S(=O)([O-])C(F)(F)F`, the figures for the MIC against Staphylococcus aureus [1], in the data set with Staphylococcus aureus [3] and against Staphylococcus aureus [4] were 128 µg/mL, 2 to 4 µg/mL and 1 µg/mL, respectively. Besides, the IC50 came to 40.2 µg/mL in the data set with CCD-841CoN, 38.6 µg/mL in the data set with BEAS-2B, 21.2 µg/mL with COLO 205 and 48.9 µg/mL in the data set on A549. Besides, the selectivity ratio in data set [5] stood at 0.79; in [8], 1.89.
